Experimental data as given in patent publication US10363251B2, “(+)-morphinans as antagonists of toll-like receptor 9 and therapeutic uses thereof” (Mallinckrodt LLC, priority 2009, dated 2019).
“Also recorded” adds a separate entry of the source.

What was measured:
[1] = tested on: chronic constriction injury (CCI) neuropathic pain model; test: Reversal of allodynia (von Frey) in CCI rats, 4 days of dosing, Example 4; type: in vivo, rat; details: i.p. once a day for 4 days from day 14; tested 3 hrs after dosing; ultra low to high dose; vs saline
Description: Allodynia was induced in a group of (male, Sprague-Dawley) rats essentially as described above in Example 3. Prior to surgery, animals were tested to establish their baseline von Frey scores. Any animal with a Log absolute von Frey score lower than 4.65 on either leg was excluded from the study. CCI surgery was performed on the left sciatic nerve as detailed above. On days 4 and 14 post-surgery, the animals were tested using the von Frey test of mechanical allodynia to ensure that allodynia was established.
Beginning at about day 14 post-surgery, the animals were dosed once a day for 4 days. Compounds II-25, II-93, II-62, and III-2 were tested. All drugs were administered intraperitoneally (i.p.). Allodynia was tested prior to and again 3 hrs after each dosing. Drug administration and testing was done blindly. After the 4th day of dosing, the animals were sacrificed, cardiac perfusion was performed, and spinal cords were removed and stored for further analysis.
All data were analyzed using 2-way ANOVA's with Bonferroni's post hoc test compared to saline unless otherwise stated. Area under curve (AUC) was calculated using Graphpad Prism and comparisons were made using 1-way ANOVA with Dunnet's post hoc test.

TLR9 = biological target: T1, TLR9 (Homo sapiens, UniProt Q9NR96); test: TLR9 screening of (+)-morphinan library, SEAP reporter in HEK293 cells expressing TLR9; type: cell-based; details: activator ODN2006; for OD 650 nm (mean ± sd): control (no activator) 0.14, activator 1.42 OD
T1 construct: expressed in transfected cells; host or cells: HEK293
T1 sequence (Q9NR96 26-1032): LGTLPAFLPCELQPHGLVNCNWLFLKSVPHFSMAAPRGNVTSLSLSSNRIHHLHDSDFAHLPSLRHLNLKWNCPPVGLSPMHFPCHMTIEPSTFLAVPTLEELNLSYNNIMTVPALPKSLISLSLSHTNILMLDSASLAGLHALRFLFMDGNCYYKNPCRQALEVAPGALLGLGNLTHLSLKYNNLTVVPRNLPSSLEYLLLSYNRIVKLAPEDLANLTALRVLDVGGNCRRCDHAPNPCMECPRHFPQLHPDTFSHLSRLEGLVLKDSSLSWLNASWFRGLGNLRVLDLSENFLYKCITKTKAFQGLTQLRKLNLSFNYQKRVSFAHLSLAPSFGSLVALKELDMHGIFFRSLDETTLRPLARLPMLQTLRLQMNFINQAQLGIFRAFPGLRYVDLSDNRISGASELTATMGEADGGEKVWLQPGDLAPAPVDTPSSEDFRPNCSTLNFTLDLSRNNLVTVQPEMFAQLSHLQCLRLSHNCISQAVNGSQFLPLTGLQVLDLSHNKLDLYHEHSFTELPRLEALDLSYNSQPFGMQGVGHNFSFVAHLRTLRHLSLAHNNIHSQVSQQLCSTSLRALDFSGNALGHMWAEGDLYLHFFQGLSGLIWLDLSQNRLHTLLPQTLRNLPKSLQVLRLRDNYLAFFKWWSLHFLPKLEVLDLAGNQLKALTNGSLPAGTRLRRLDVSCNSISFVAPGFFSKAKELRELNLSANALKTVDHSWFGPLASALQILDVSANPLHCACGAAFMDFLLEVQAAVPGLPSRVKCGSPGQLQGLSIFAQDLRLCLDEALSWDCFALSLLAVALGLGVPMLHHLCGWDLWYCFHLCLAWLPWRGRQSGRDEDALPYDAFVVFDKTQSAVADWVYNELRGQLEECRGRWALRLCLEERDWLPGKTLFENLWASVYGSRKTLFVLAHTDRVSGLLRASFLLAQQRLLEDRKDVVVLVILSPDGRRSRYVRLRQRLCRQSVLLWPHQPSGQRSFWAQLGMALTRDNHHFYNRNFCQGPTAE
Outline: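 HEK293 cells expressing TLR9 with an NF-κB-inducible SEAP reporter were preincubated with compound at 10 μM and 100 nM for 30 min at 37 °C, then stimulated with ODN2006. SEAP was read as OD 650 nm after 16-20 h, in triplicate.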

acute pancreatitis = test: Caerulein-induced acute pancreatitis model; type: in vivo, mouse; details: 30 mg/kg subcutaneously, vs saline
Description: Acute pancreatitis can be induced in rodents by administration of caerulein, a CCK analog derived from derived from the Australian tree frog Litoria caerulea. To determine whether a (+)-morphinan could reduce the inflammation and/or consequences of pancreatitis, the following example was performed. Mice were administered subcutaneously an effective dose of caerulein and either saline or Cmpd II-78 (30 mg/kg). After the standard period of time, the mice were sacrificed. Pancreatic tissue sections were stained and examined for neutrophil infiltration, and pancreatic trypsin, serum amylase, and pancreatic caspase −1 activities were measure using standard assays.

C=CCN1CC[C@]23c4c5ccc(O)c4O[C@H]2C(=O)CC[C@]3(O)[C@H]1C5 [(+)-Naloxone, (+)-naloxone]
Reversal of allodynia (von Frey) [1]: not effective at reversing allodynia

CN[C@@H]1CC[C@]2(O)[C@@H]3Cc4ccc(O)c5c4[C@]2(CCN3CC2CC2)[C@@H]1O5 [II-78]
OD 650 nm (mean ± sd) (TLR9; 100 nM): 0.14 ± 0.02 OD | OD 650 nm (mean ± sd) (TLR9; 10 μM): 0.11 ± 0.01 OD | inhibition at 0.1 µM (TLR9; HEK293, read-out: % Inhibition (mean), 100 nM): 90% | inhibition at 10 µM (TLR9; HEK293, read-out: % Inhibition (mean), 10 μM): 92% | Neutrophil infiltration in the pancreas (acute pancreatitis): dramatically reduced; also recorded: reduced neutrophil infiltration in the pancreas | Pancreatic caspase 1 activity (acute pancreatitis): Significant reductions; also recorded: reduced pancreatic caspase 1 activity | Pancreatic trypsin activity (acute pancreatitis): Significant reductions; also recorded: reduced | Serum amylase (acute pancreatitis): Significant reductions; also recorded: reduced serum amylase
